Data reported in the NIST ThermoML archive (doi:10.1021/je5009119).

Assays:
[1] = 101.33 kPa, Liquid; for viscosity: Capillary tube (Ostwald / Ubbelohde) method; for mass density: Pycnometric method
[2] = mn = molality of the nth substance listed, in mol/kg; settings: 101 kPa, Liquid; for viscosity: Capillary tube (Ostwald / Ubbelohde) method; for mass density: Pycnometric method

OCCO [1,2-ethanediol]
[1]
Settings	mass density [kg/m3]	viscosity [mPa·s]
298.15 K	–	16.2
303.15 K	1106.6	14.1
308.15 K	–	11.6
313.15 K	1099.3	9.75
318.15 K	–	7.91

NC(N)=O [urea] + OCCO
[2]
Settings	mass density, 298.15 K [kg/m3]	mass density, 303.15 K [kg/m3]	mass density, 308.15 K [kg/m3]	mass density, 313.15 K [kg/m3]	mass density, 318.15 K [kg/m3]	viscosity, 298.15 K [mPa·s]	viscosity, 303.15 K [mPa·s]	viscosity, 308.15 K [mPa·s]	viscosity, 313.15 K [mPa·s]	viscosity, 318.15 K [mPa·s]
m1 = 0.877	1118.4	1114.8	1111.1	1107.8	1103.9	17	14.9	12.1	10.1	8.13
m1 = 1.852	1127.9	1124.4	1120.7	1117.4	1113.6	18.5	16	13	10.8	8.68
m1 = 2.939	1137.2	1133.7	1130	1126.8	1122.9	20.4	17.5	14.1	11.6	9.31
m1 = 4.162	1146.3	1142.9	1139.1	1135.9	1132.1	22.1	18.8	15.1	12.4	9.86
m1 = 5.549	1155.3	1151.9	1148.1	1144.9	1141	24	20.2	16.1	13.2	10.4
m1 = 7.137	1164.4	1161.1	1157.4	1154.1	1150.3	25.7	21.5	17.1	13.9	11

OCCO [1,2-ethanediol] + NC(N)=O
[2], m2 = 0
Settings	mass density [kg/m3]	viscosity [mPa·s]
298.15 K	–	16.2
303.15 K	1106.6	14.1
308.15 K	–	11.6
313.15 K	1099.3	9.75
318.15 K	–	7.91
